Reference: ChEMBL document CHEMBL1146459, “Production of biologically active taxoids by a callus culture of Taxus cuspidata” (2004)

Test system: NCI-H226
Assay: Growth inhibition of human NCI-H226 cells after 48 hrs by SRB assay
Format: functional
Settings: NCI-H226, 48 h
[1] = read-out: LC50 (the source's name)
[2] = read-out: pLC50 (the source's name) (converted)

SMILES	GI50 (read-out: GI50) [µM]	CC50 [1] [µM]	TGI (read-out: TGI) [µM]	GI50 (read-out: pGI50 (converted)) [µM]	CC50 [2] [µM]	TGI (read-out: pTGI (converted)) [µM]
C=C1[C@@H](OC(C)=O)CC[C@@]2(C)C[C@H](OC(C)=O)C3=C(C)C[C@H](OC(=O)C(C)CC)[C@@H]([C@@H](OC(C)=O)[C@H]12)C3(C)C (some centres not stated)	32	> 100	> 100	32.4	100	100
C=C1[C@@H](OC(C)=O)CC[C@]2(C)[C@@H]1C[C@@H]1C[C@H](OC(C)=O)C(C)=C([C@@H](O)[C@@H]2OC(=O)/C=C/c2ccccc2)C1(C)C	21	100	100	83.2	100	100
